Measurements taken from US20220402882A1, “HERBICIDAL COMPOUNDS” (SYNGENTA CROP PROTECTION AG, priority 2019, published 2022).

What was measured:
Format in all cases: in vivo
Conditions in all cases: evaluated after 13 days
[1] = test system: Ipomoea hederacea (IPOHE); test: Post-emergence glasshouse herbicide test
Method: (§1) Seeds of a variety of test species are sown in standard soil in pots (Lolium perenne (LOLPE), Amaranthus retoflexus (AMARE), Abutilon theophrasti (ABUTH), Setaria faberi (SETFA), Echinochloa crus-galli (ECHCG), Ipomoea hederacea (IPOHE)). After cultivation for one day (pre-emergence) or after 8 days cultivation (post-emergence) under controlled conditions in a glasshouse (at 24/16° C., day/night; 14 hours light; 65% humidity), the plants are sprayed with an aqueous spray solution derived from the formulation of the technical active ingredient in acetone/water (50:50) solution containing 0.5% Tween™ 20 (polyoxyethelyene sorbitan monolaurate, CAS RN 9005-64-5). Compounds are applied at 125 g/h unless otherwise indicated. The test plants are then grown in a glasshouse under controlled conditions in a glasshouse (at 24/16° C., day/night; 14 hours light; 65% humidity) and watered twice daily. After 13 days for pre- and post-emergence, the test is evaluated for the percentage damage caused to the plant. The biological activities are shown in the following table on a five-point scale (5=80-100%; 4=60-79%; 3=40-59%; 2=20-39%; 1=0-19%).

[2] = test system: Echinochloa crus-galli (ECHCG); test: Post-emergence glasshouse herbicide test
Method: as §1

[3] = test system: Abutilon theophrasti (ABUTH); test: Post-emergence glasshouse herbicide test
Method: as §1

[4] = test system: Amaranthus retoflexus (AMARE); test: Post-emergence glasshouse herbicide test
Method: as §1

Setaria faberi (SETFA) [5] = test: Post-emergence glasshouse herbicide test
Method: as §1

[6] = test system: Ipomoea hederacea (IPOHE); test: Pre-emergence glasshouse herbicide test
Method: as §1

[7] = test system: Echinochloa crus-galli (ECHCG); test: Pre-emergence glasshouse herbicide test
Method: as §1

[8] = test system: Abutilon theophrasti (ABUTH); test: Pre-emergence glasshouse herbicide test
Method: as §1

[9] = test system: Amaranthus retoflexus (AMARE); test: Pre-emergence glasshouse herbicide test
Method: as §1

Setaria faberi (SETFA) [10] = test: Pre-emergence glasshouse herbicide test
Method: as §1

SMILES | percentage damage caused to the plant, IPOHE ([1]; *Applied at 250 g/ha) | percentage damage caused to the plant, ECHCG ([2]; *Applied at 250 g/ha) | percentage damage caused to the plant, ABUTH ([3]; *Applied at 250 g/ha) | percentage damage caused to the plant, AMARE ([4]; *Applied at 250 g/ha) | percentage damage caused to the plant, SETFA (Setaria faberi (SETFA) [5]; *Applied at 250 g/ha) | percentage damage caused to the plant, IPOHE ([6]; *Applied at 250 g/ha) | percentage damage caused to the plant, ECHCG ([7]; *Applied at 250 g/ha) | percentage damage caused to the plant, ABUTH ([8]; *Applied at 250 g/ha) | percentage damage caused to the plant, AMARE ([9]; *Applied at 250 g/ha) | percentage damage caused to the plant, SETFA (Setaria faberi (SETFA) [10]; *Applied at 250 g/ha) | percentage damage caused to the plant, IPOHE ([1]; 125 g/h) | percentage damage caused to the plant, ECHCG ([2]; 125 g/h) | percentage damage caused to the plant, ABUTH ([3]; 125 g/h) | percentage damage caused to the plant, AMARE ([4]; 125 g/h) | percentage damage caused to the plant, SETFA (Setaria faberi (SETFA) [5]; 125 g/h) | percentage damage caused to the plant, IPOHE ([6]; 125 g/h) | percentage damage caused to the plant, ECHCG ([7]; 125 g/h) | percentage damage caused to the plant, ABUTH ([8]; 125 g/h) | percentage damage caused to the plant, AMARE ([9]; 125 g/h) | percentage damage caused to the plant, SETFA (Setaria faberi (SETFA) [10]; 125 g/h)
CSc1c(OC(F)(F)F)ccc(C(=O)Nc2nnnn2C)c1Cl [Compound 1.005, 2-chloro-3-methylsulfanyl-N-(1-methyltetrazol-5-yl)-4-(trifluoromethoxy)benzamide] | 5 (5=80-100%) | 5 (5=80-100%) | 5 (5=80-100%) | 5 (5=80-100%) | 5 (5=80-100%) | 1 (1=0-19%) | 1 (1=0-19%) | 2 (2=20-39%) | 4 (4=60-79%) | 1 (1=0-19%) |  |  |  |  |  |  |  |  |  | 
CSc1c(OC(F)(F)C(F)F)ccc(C(=O)Nc2nnnn2C)c1Cl [Compound 1.009, 2-chloro-3-methylsulfanyl-N-(1-methyltetrazol-5-yl)-4-(1,1,2,2-tetrafluoroethoxy)benzamide] |  |  |  |  |  |  |  |  |  |  | 4 (4=60-79%) | 4 (4=60-79%) | 4 (4=60-79%) | 4 (4=60-79%) | 4 (4=60-79%) | 3 (3=40-59%) | 5 (5=80-100%) | 4 (4=60-79%) | 5 (5=80-100%) | 5 (5=80-100%)
Cc1c(C(=O)Nc2nnnn2C)ccc(OC(F)(F)F)c1S(C)(=O)=O [Compound 1.013] |  |  |  |  |  |  |  |  |  |  | 5 (5=80-100%) | 5 (5=80-100%) | 5 (5=80-100%) | 5 (5=80-100%) | 5 (5=80-100%) | 5 (5=80-100%) | 5 (5=80-100%) | 5 (5=80-100%) | 5 (5=80-100%) | 5 (5=80-100%)
CC[S+]([O-])c1c(CC(F)(F)F)ccc(C(=O)Nc2nnnn2C)c1Cl (centres unmarked) [Compound 1.020] |  |  |  |  |  |  |  |  |  |  | 5 (5=80-100%) | 5 (5=80-100%) | 5 (5=80-100%) | 5 (5=80-100%) | 5 (5=80-100%) | 5 (5=80-100%) | 5 (5=80-100%) | 5 (5=80-100%) | 5 (5=80-100%) | 5 (5=80-100%)
CCSc1c(OC(F)(F)F)ccc(C(=O)Nc2nnnn2C)c1Cl [Compound 1.021] |  |  |  |  |  |  |  |  |  |  | 5 (5=80-100%) | 5 (5=80-100%) | 5 (5=80-100%) | 4 (4=60-79%) | 5 (5=80-100%) | 3 (3=40-59%) | 5 (5=80-100%) | 4 (4=60-79%) | 5 (5=80-100%) | 5 (5=80-100%)
CCS(=O)(=O)c1c(CC(F)(F)F)ccc(C(=O)Nc2nnnn2C)c1Cl [Compound 1.022] |  |  |  |  |  |  |  |  |  |  | 5 (5=80-100%) | 5 (5=80-100%) | 5 (5=80-100%) | 4 (4=60-79%) | 5 (5=80-100%) | 5 (5=80-100%) | 5 (5=80-100%) | 5 (5=80-100%) | 5 (5=80-100%) | 5 (5=80-100%)
CC[S+]([O-])c1c(OC(F)(F)F)ccc(C(=O)Nc2nnnn2C)c1C (centres unmarked) [Compound 1.023] |  |  |  |  |  |  |  |  |  |  | 5 (5=80-100%) | 5 (5=80-100%) | 5 (5=80-100%) | 5 (5=80-100%) | 5 (5=80-100%) | 5 (5=80-100%) | 5 (5=80-100%) | 5 (5=80-100%) | 5 (5=80-100%) | 5 (5=80-100%)
CCS(=O)(=O)c1c(CC(F)(F)F)ccc(C(=O)Nc2nnnn2C)c1C [Compound 1.024] |  |  |  |  |  |  |  |  |  |  | 5 (5=80-100%) | 5 (5=80-100%) | 5 (5=80-100%) | 5 (5=80-100%) | 5 (5=80-100%) | 5 (5=80-100%) | 5 (5=80-100%) | 5 (5=80-100%) | 5 (5=80-100%) | 5 (5=80-100%)
CCS(=O)(=O)c1cc(C(=O)Nc2nnnn2C)ccc1OC(F)F [Compound 1.025] |  |  |  |  |  |  |  |  |  |  | 5 (5=80-100%) | 5 (5=80-100%) | 5 (5=80-100%) | 5 (5=80-100%) | 5 (5=80-100%) | 4 (4=60-79%) | 5 (5=80-100%) | 5 (5=80-100%) | 5 (5=80-100%) | 5 (5=80-100%)
CC[S+]([O-])c1c(OC(F)F)ccc(C(=O)Nc2nnnn2C)c1Cl (centres unmarked) [Compound 1.026] |  |  |  |  |  |  |  |  |  |  | 5 (5=80-100%) | 5 (5=80-100%) | 5 (5=80-100%) | 5 (5=80-100%) | 5 (5=80-100%) | 5 (5=80-100%) | 5 (5=80-100%) | 5 (5=80-100%) | 5 (5=80-100%) | 5 (5=80-100%)
CCSc1c(OC(F)F)ccc(C(=O)Nc2nnnn2C)c1Cl [Compound 1.027] |  |  |  |  |  |  |  |  |  |  | 4 (4=60-79%) | 5 (5=80-100%) | 5 (5=80-100%) | 5 (5=80-100%) | 5 (5=80-100%) | 3 (3=40-59%) | 5 (5=80-100%) | 5 (5=80-100%) | 5 (5=80-100%) | 5 (5=80-100%)
CCSc1c(OC(F)F)ccc(C(=O)Nc2nnnn2C)c1C [Compound 1.028] |  |  |  |  |  |  |  |  |  |  | 5 (5=80-100%) | 5 (5=80-100%) | 5 (5=80-100%) | 5 (5=80-100%) | 5 (5=80-100%) | 3 (3=40-59%) | 5 (5=80-100%) | 5 (5=80-100%) | 5 (5=80-100%) | 5 (5=80-100%)
CC[S+]([O-])c1c(OC(F)F)ccc(C(=O)Nc2nnnn2C)c1C (centres unmarked) [Compound 1.029] |  |  |  |  |  |  |  |  |  |  | 5 (5=80-100%) | 5 (5=80-100%) | 5 (5=80-100%) | 5 (5=80-100%) | 5 (5=80-100%) | 4 (4=60-79%) | 5 (5=80-100%) | 5 (5=80-100%) | 5 (5=80-100%) | 5 (5=80-100%)
CCSc1c(OC(F)(F)F)ccc(C(=O)Nc2nnnn2C)c1C [Compound 1.030] |  |  |  |  |  |  |  |  |  |  | 5 (5=80-100%) | 5 (5=80-100%) | 5 (5=80-100%) | 5 (5=80-100%) | 5 (5=80-100%) | 3 (3=40-59%) | 5 (5=80-100%) | 5 (5=80-100%) | 5 (5=80-100%) | 5 (5=80-100%)
